Test results taken from PubChem BioAssay (NCI).
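Cultured in 96-well plates, cells were exposed to test compound for 48 hours across five concentrations. TGI is the concentration that stops growth completely.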

Key:
Assay in all cases: DTP human tumour cell line panel, 48 h
HL-60(TB) leukemia = system: HL-60(TB) leukemia
CCRF-CEM leukemia = system: CCRF-CEM leukemia
RXF 393 renal = system: RXF 393 renal
MALME-3M melanoma = system: MALME-3M melanoma
SK-OV-3 ovarian = system: SK-OV-3 ovarian
MDA-MB-231 breast = system: MDA-MB-231 breast
K-562 leukemia = system: K-562 leukemia
IGROV1 ovarian = system: IGROV1 ovarian
NCI-H522 lung = system: NCI-H522 lung
RPMI-8226 leukemia = system: RPMI-8226 leukemia
SF-268 CNS = system: SF-268 CNS
SF-295 CNS = system: SF-295 CNS
HCT-116 colon = system: HCT-116 colon
HCC-2998 colon = system: HCC-2998 colon
M14 melanoma = system: M14 melanoma
OVCAR-4 ovarian = system: OVCAR-4 ovarian
ACHN renal = system: ACHN renal
A498 renal = system: A498 renal
T-47D breast = system: T-47D breast
SNB-19 CNS = system: SNB-19 CNS

| Compound | TGI (HL-60(TB) leukemia) [µM] | TGI (CCRF-CEM leukemia) [µM] | TGI (RXF 393 renal) [µM] | TGI (MALME-3M melanoma) [µM] | TGI (SK-OV-3 ovarian) [µM] | TGI (MDA-MB-231 breast) [µM] | TGI (K-562 leukemia) [µM] | TGI (IGROV1 ovarian) [µM] | TGI (NCI-H522 lung) [µM] | TGI (RPMI-8226 leukemia) [µM] | TGI (SF-268 CNS) [µM] | TGI (SF-295 CNS) [µM] | TGI (HCT-116 colon) [µM] | TGI (HCC-2998 colon) [µM] | TGI (M14 melanoma) [µM] | TGI (OVCAR-4 ovarian) [µM] | TGI (ACHN renal) [µM] | TGI (A498 renal) [µM] | TGI (T-47D breast) [µM] | TGI (SNB-19 CNS) [µM] |
| --- | --- | --- | --- | --- | --- | --- | --- | --- | --- | --- | --- | --- | --- | --- | --- | --- | --- | --- | --- | --- |
| C=C(C(=O)O)[C@@H]1C[C@@H](OC(C)=O)[C@]2(C)CC/C=C(\C)CCC[C@H](C)[C@H](O)[C@@H]1O2 | 57.4 | 73.4 | 65.9 | > 100 | > 100 | > 100 | > 100 | > 100 | 48.4 | > 100 | > 100 | > 100 | > 100 | > 100 | > 100 | > 100 | > 100 | > 100 | > 100 |  |
| C=CC1C(OC2OC(CO)C(O)C(O)C2O)OC=C(C(=O)OC)C1CC1CC(=O)CC(CCc2ccc(O)cc2)O1 (stereo not drawn) | > 100 | > 100 | > 100 | > 100 | > 100 | > 100 | > 100 | > 100 | > 100 | > 100 | > 100 | > 100 | > 100 | > 100 | > 100 | > 100 | > 100 | > 100 | > 100 | > 100 |
| O=C(NCCCl)N(O)C(=O)Nc1ccccc1 | > 100 | > 100 | > 100 | > 100 | > 100 | > 100 | > 100 | > 100 | > 100 | > 100 | > 100 | > 100 | > 100 | > 100 | > 100 | > 100 | > 100 | > 100 | > 100 | > 100 |
| COC(=O)C1=C(C(=O)Nc2cccnc2Cl)N(c2ccc(OC)cc2[N+](=O)[O-])C(c2ccc(C)cc2)=CC1c1ccc(OC)cc1OC (stereo not drawn) | 52.5 | > 36.8 | 22.2 | 53.3 | 62.9 | 62.1 | > 100 | 33.7 | 26.3 | 21.5 | 78.5 | > 100 | 98.7 | 27.8 | > 72.5 | > 100 | > 81.6 | 50.6 | 88.3 | > 88.6 |
| COc1c(OC(C)=O)c(OC(C)=O)cc2c1-c1ccc(SC)c(=O)cc1C(NC(C)=O)CC2 (stereo not drawn) | 0.61 | > 100 | > 86.7 | > 100 | > 44 | > 100 | > 43.8 | > 100 | 0.576 | > 100 | > 100 | 21.3 | > 100 | > 27.6 | > 100 | > 100 | > 100 | 56 | > 100 | > 100 |
| COc1cccc2cc(C(=O)O)c(=O)oc12 | > 100 | > 100 | > 100 | > 100 |  | > 100 | > 100 | > 100 | > 100 | > 100 | > 100 | > 100 | > 100 | > 100 | > 100 | > 100 | > 100 | > 100 | > 100 | > 100 |
| Cc1nc2ccc(NC(=S)Nc3ccccc3)cc2c(=O)n1-c1ccccc1 | > 100 |  | > 100 | > 100 |  | > 100 | > 100 | > 100 | > 100 | 94.6 | > 100 | > 100 | > 100 | > 100 |  | > 100 | > 100 | > 100 | > 100 | > 100 |
| Cc1c(C)n(-c2ccccc2)c2nc(S(C)(=O)=O)nc(S(C)(=O)=O)c12 | 3.35 | 2.29 | 2.75 | 2.92 | 34.2 | 19.4 | 2.95 | 9.24 | 3.59 | 4.94 | 31.1 | 31.1 | 2.98 | 41.2 | 3.1 | 3.13 | 2.91 | 28.9 | 5.52 | 25.6 |
| O=c1cc(CO)oc(C(O)c2ccccc2)c1O (stereo not drawn) | > 100 |  | > 100 | > 100 | > 100 | > 100 |  | > 100 | > 100 | > 100 | > 100 | > 100 | > 100 | > 100 | > 100 | > 100 | > 100 | > 100 | > 100 | > 100 |
| Cc1ccc(-c2n[nH]c(=O)n2/N=C\c2ccc([N+](=O)[O-])cc2)cc1 | 97.6 | > 100 | > 100 | > 100 | > 100 | > 75.9 | > 94.2 | > 100 | > 100 | > 100 | > 100 | > 100 | > 100 | > 100 | > 100 | > 100 | > 100 | > 100 | > 100 | > 100 |
| CC(=O)N(CCc1ccccc1)C(C#N)c1ccccc1 (stereo not drawn) | > 100 | > 100 | > 100 | > 100 | > 100 | > 100 | > 100 | > 100 | > 100 | > 100 | > 100 | > 100 | > 100 | > 100 | > 100 | > 100 | > 100 | > 100 | > 100 | > 100 |
